Results published in patent US6362369B1, “Phthalic acid diamide derivatives fluorine-containing aniline compounds as starting material, agricultural and horticultural insecticides, and a method for application of the insecticides” (Nihon Nohyaku Co., Ltd., priority 1997, dated 2002).

Legend:
[1] = test system: diamondback moth (Plutella xylostella); assay: Insecticidal effect on diamondback moth (Test Example 1); assay type: in vivo; details: for Insecticidal effect (Test Example 1), judged from mortality / Insecticidal effect, Test Example 1: diamondback moth; for Insecticidal effect (Test Example 1), judged from mortality: judged by the criterion of Test Example 1; for Insecticidal effect on diamondback moth (Test Example 1), judged grade: mortality judged according to the criterion shown in Test Example 1
Summary of the method: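 Triplicate groups of 10 insects were scored: six days after immersion of oviposited Chinese cabbage seedlings and holding at 25 °C post air-drying, hatched larvae were counted. Mortality derived from these counts and insecticidal effect judged by a set criterion.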

[2] = test system: common cutworm (Spodoptera Litura); assay: Insecticidal effect on common cutworm (Test Example 2); assay type: in vivo; details: 500 ppm, 25° C.; for Insecticidal effect (Test Example 2), judged from mortality / Insecticidal effect on common cutworm (Test Example 2), judged grade: cabbage leaf dip; for Insecticidal effect (Test Example 2), judged from mortality: 8 days after inoculation; for Insecticidal effect on common cutworm (Test Example 2), judged grade: second-instar larvae; for Insecticidal effect on common cutworm (Test Example 2), judged grade / Insecticidal effect, Test Example 2: eight days after inoculation; for Insecticidal effect, Test Example 2: cabbage leaf immersed
Method: Insecticidal effect on common cutworm (Spodoptera Litura)
After air-drying, it was placed in a plastic Petri dish with a diameter of 9 cm and inoculated with second-instar larvae of common cutworm, after which the dish was closed and then allowed to stand in a room thermostated at 25° C. Eight days after the inoculation, the dead and alive were counted. The mortality was calculated according to the following equation and the insecticidal effect was judged according to the criterion shown in Test Example 1. The test was carried out with triplicate groups of 10 insects. [formula]

[3] = second-instar larvae of common cutworm
[4] = judged by the mortality criterion of Test Example 1
[5] = mortality judged by criterion of Test Example 1
[6] = common cutworm second-instar larvae

Structure (SMILES)	Insecticidal effect (Test Example 1), judged from mortality [1]	Insecticidal effect (Test Example 2), judged from mortality [2, 3]	further results
Cc1cc(C(F)(F)C(F)(F)F)c(C)cc1NC(=O)c1cccc(I)c1C(=O)NC(C)C [compound 1610]	A (100)	A (100)	–
CC(C)NC(=O)c1cccc(F)c1C(=O)Nc1ccc(C(F)(F)C(F)(F)C(F)(F)F)cc1 [compound 535]	–	–	Insecticidal effect on diamondback moth (Test Example 1), judged grade [1]: A (100); Insecticidal effect on common cutworm (Test Example 2), judged grade [2]: A (100)
CC(C)(C)NC(=O)c1c(I)cccc1C(=O)Nc1ccc(C(F)(C(F)(F)F)C(F)(F)F)c(F)c1 [compound 1696]	A (100)	A (100)	–
CNC(=O)c1ccccc1C(=O)Nc1ccc(C(F)(F)F)cc1 [compound 2]	–	–	Insecticidal effect, Test Example 1 [1, 4]: A (100); Insecticidal effect, Test Example 2 [2, 3]: C (89-80)
CC(C)NC(=O)c1c(I)cccc1C(=O)Nc1ccc(C(F)(C(F)(F)F)C(F)(F)F)cc1C(C)C [compound 1691]	A (100)	A (100)	–
CC(C)NC(=O)c1c(I)cccc1C(=O)Nc1ccc(OC(F)(F)F)cc1F [compound 1188]	–	–	Insecticidal effect, Test Example 1 [1, 5]: A (100); Insecticidal effect, Test Example 2 [2, 6]: A (100)
CCN(CC)C(=O)c1c(C(=O)Nc2ccc(OC(F)(F)F)cc2C)ccc(F)c1Cl [compound 1261]	–	–	Insecticidal effect, Test Example 1 [1, 5]: A (100); Insecticidal effect, Test Example 2 [2, 6]: A (100)
CC(C)NC(=O)c1c(I)cccc1C(=O)Nc1ccc(C(F)(C(F)(F)F)C(F)(F)F)cc1Br [compound 1699]	A (100)	A (100)	–
Cc1ccc(Cl)cc1NC(=O)c1c(Cl)cccc1C(=O)NC(C)C [compound 215]	–	–	Insecticidal effect, Test Example 1 [1, 4]: A (100); Insecticidal effect, Test Example 2 [2, 3]: D (79-50)
COc1ccc(NC(=O)c2c(Br)cccc2C(=O)NC(C)C)c(C)c1C [compound 321]	–	–	Insecticidal effect, Test Example 1 [1, 4]: A (100); Insecticidal effect, Test Example 2 [2, 3]: A (100)
Cc1c(NC(=O)c2cccc(I)c2C(=O)NC(C)(C)C)ccc(C(F)(C(F)(F)F)C(F)(F)F)c1C [compound 1690]	A (100)	A (100)	–
Cc1cc(I)ccc1NC(=O)c1c(I)cccc1C(=O)NC(C)C [compound 431]	–	–	Insecticidal effect, Test Example 1 [1, 4]: A (100); Insecticidal effect, Test Example 2 [2, 3]: A (100)
CC(C)(C)NC(=O)c1c(I)cccc1C(=O)Nc1ccc2c(c1)OC(F)(F)C(F)O2 (centres unmarked) [compound 1166]	–	–	Insecticidal effect, Test Example 1 [1, 5]: A (100); Insecticidal effect, Test Example 2 [2, 6]: A (100)
Cc1cc(C(F)(C(F)(F)F)C(F)(F)F)c(Cl)cc1NC(=O)c1cccc(I)c1C(=O)NC(C)C [compound 1665]	A (100)	A (100)	–
Cc1cc(C(F)(C(F)(F)F)C(F)(F)F)ccc1NC(=O)c1cccc(OC(F)(F)F)c1C(=O)NC(C)C [compound 1236]	–	–	Insecticidal effect, Test Example 1 [1, 5]: A (100); Insecticidal effect, Test Example 2 [2, 6]: A (100)
CSc1cc(C(F)(C(F)(F)F)C(F)(F)F)ccc1NC(=O)c1cccc(I)c1C(=O)NC(C)(C)C [compound 1672]	A (100)	A (100)	–
Cc1cc(Oc2c(F)c(F)c(F)c(F)c2F)ccc1NC(=O)c1c(Cl)cccc1C(=O)NC(C)C [compound 248]	–	–	Insecticidal effect, Test Example 1 [1, 4]: A (100); Insecticidal effect, Test Example 2 [2, 3]: C (89-80)

Structure (SMILES)	Insecticidal effect (Test Example 1), judged from mortality [1]	Insecticidal effect (Test Example 2), judged from mortality [2, 3]	further results
Cc1cc(C(F)(F)C(F)(F)F)ccc1NC(=O)c1cccc(C#N)c1C(=O)NC(C)C [compound 1245]	–	–	Insecticidal effect, Test Example 1 [1, 5]: A (100); Insecticidal effect, Test Example 2 [2, 6]: A (100)
Cc1ccc(Cl)cc1NC(=O)c1cccc([N+](=O)[O-])c1C(=O)NC1CCCC1 [compound 858]	–	–	Insecticidal effect on diamondback moth (Test Example 1), judged grade [1]: C (89-80); Insecticidal effect on common cutworm (Test Example 2), judged grade [2]: A (100)
CC(C)NC(=O)c1c(I)cccc1C(=O)Nc1ccc(C(F)(F)C(F)(F)F)c(Cl)c1 [compound 1608]	A (100)	A (100)	–
CSc1ccc(NC(=O)c2cccc([N+](=O)[O-])c2C(=O)NC(C)C)c(C)c1 [compound 719]	–	–	Insecticidal effect on diamondback moth (Test Example 1), judged grade [1]: A (100); Insecticidal effect on common cutworm (Test Example 2), judged grade [2]: D (79-50)
Cc1cc(C(F)(F)C(F)(F)F)ccc1N(C)C(=O)c1cccc(Cl)c1C(=O)NC(C)c1ccccc1 (centres unmarked) [compound 1554]	A (100)	A (100)	–
Cc1cc2c(cc1NC(=O)c1cccc(I)c1C(=O)NC(C)C)OC(F)(F)C(F)O2 (racemic) [compound 1598]	A (100)	A (100)	–
Cc1cc(Cl)ccc1NC(=O)c1cccc([N+](=O)[O-])c1C(=O)NC(C)C [compound 664, 3-nitro-N^1-(4-chloro-2-methylphenyl)-N^2-isopropyl-phthalic acid diamide]	–	–	Insecticidal effect on diamondback moth (Test Example 1), judged grade [1]: A (100); Insecticidal effect on common cutworm (Test Example 2), judged grade [2]: A (100)
Cc1cc(C(F)(C(F)(F)F)C(F)(F)F)ccc1NC(=O)c1cccc(I)c1C(=O)NC(C)C [compound 1667]	A (100)	A (100)	–
Cc1cc(C(F)(C(F)(F)F)C(F)(F)F)ccc1NC(=O)c1cccc(I)c1C(=O)NC(C)(C)C [compound 1668]	A (100)	A (100)	–
CC(C)NC(=O)c1c(I)cccc1C(=O)Nc1ccc(C(F)(C(F)(F)F)C(F)(F)F)cc1F [compound 1669]	A (100)	A (100)	–
CSc1cc(C(F)(F)C(F)(F)F)ccc1NC(=O)c1cccc(I)c1C(=O)NC(C)C [compound 1700]	A (100)	D (79-50)	–
Cc1c(NC(=O)c2cccc(I)c2C(=O)NC(C)(C)C)ccc(C(F)(F)C(F)(F)F)c1C [compound 1613]	A (100)	A (100)	–
CC(C)(C)NC(=O)c1c(I)cccc1C(=O)Nc1ccc(C(F)(C(F)(F)F)C(F)(F)F)cc1F [compound 1670]	A (100)	A (100)	–
Cc1cc(OC(F)F)c(Cl)cc1NC(=O)c1c(F)cccc1C(=O)NC(C)C [compound 571]	–	–	Insecticidal effect on diamondback moth (Test Example 1), judged grade [1]: A (100); Insecticidal effect on common cutworm (Test Example 2), judged grade [2]: C (89-80)
Cc1cc(OCC(F)(F)C(F)F)ccc1NC(=O)c1cccc(Cl)c1C(=O)NC(C)C [compound 147]	–	–	Insecticidal effect, Test Example 1 [1, 4]: A (100); Insecticidal effect, Test Example 2 [2, 3]: C (89-80)
COc1cc(C(F)(F)C(F)(F)F)ccc1NC(=O)c1cccc(I)c1C(=O)NC(C)(C)C [compound 1662]	A (100)	A (100)	–
Cc1cc(Oc2ccc(C(F)(F)F)cn2)ccc1NC(=O)c1c(I)cccc1C(=O)NC(C)C [compound 460]	–	–	Insecticidal effect on diamondback moth (Test Example 1), judged grade [1]: A (100); Insecticidal effect on common cutworm (Test Example 2), judged grade [2]: B (99-90)
